Values of other authors, collected in patent US20060211660A1, “Combination therapy for topical application in the treatment of dry eye syndrome” (priority 2005, published 2006).
Read-outs that look alike come from different tables or passages of the source.

What was measured:
[1] = for anabolic activity relative to standards: relative to standards (typically testosterone)
[2] = for androgenic (virilizing) activity relative to standards: relative to standards (typically testosterone)

Structure (SMILES) | anabolic activity relative to standards [1] | androgenic (virilizing) activity relative to standards [2] | also measured
C[C@]12CC[C@@H]3c4ccc(O)cc4CC[C@H]3[C@@H]1CC[C@@H]2O [17-β-estradiol] | – | – | improvement in corneal lens transmittance and autofluorescence (0.00025% drops every 6 hours, women already taking 2 mg estriol valerate daily by mouth): varying or marginal improvement
CCC(=O)O[C@H]1CC[C@H]2[C@@H]3CCC4=CC(=O)CC[C@@H]4[C@H]3CC[C@]12C [19-nortestosterone propionate] | unchanged | decreased | –
C[C@]12CCC(=O)C[C@@H]1CC[C@@H]1[C@@H]2CC[C@]2(C)[C@@H](O)CC[C@@H]12 [dihydrotestosterone] | enhanced | unchanged | –
C[C@]12CC[C@@H]3c4ccc(O)cc4CC[C@H]3[C@@H]1C[C@@H](O)[C@@H]2O [estriol] | – | – | improvement in corneal lens transmittance and autofluorescence (post-menopausal patients, low systemic dose 0.25 mg per day): varying or marginal improvement
C[C@]1(O)CC[C@H]2[C@@H]3CCC4=CC(=O)CC[C@]4(C)[C@@]3(F)[C@@H](O)C[C@@]21C [fluoxymesterone] | – | augmented | –
C[C@]12COC(=O)C[C@@H]1CC[C@@H]1[C@@H]2CC[C@@]2(C)[C@H]1CC[C@]2(C)O [oxandrolone, 17 alpha-methyl-17β-hydroxy-2-oxa-5 alpha-androstan-3-one] | increased | decreased | anabolic activity, percent of that of methyltestosterone ([1]; relative to methyltestosterone): 322%; androgenic activity, percent of that of methyltestosterone ([2]; relative to methyltestosterone): 24%
C[C@]12C/C(=C/O)C(=O)C[C@@H]1CC[C@@H]1[C@@H]2CC[C@@]2(C)[C@H]1CC[C@]2(C)O [oxymetholone] | enhanced | unchanged | –
C[C@]12Cc3c[nH]nc3C[C@@H]1CC[C@@H]1[C@@H]2CC[C@@]2(C)[C@H]1CC[C@]2(C)O [stanozolol] | increased | decreased | –
